# How the values were obtained:
# [1] = molecular target: Rev responsive element (RRE) RNA; experiment: Binding affinity to Rev response element RNA; assay type: nucleic-acid assay
# [2] = system: Rev responsive element (RRE) RNA; experiment: Discrimination factor, Kd for tRNA/Kd for Rev response element RNA; assay type: nucleic-acid assay
# [3] = molecular target: tRNA; experiment: Binding affinity to tRNA
# [4] = molecular target: Rev responsive element (RRE) RNA; experiment: Inhibition of Rev binding to Rev response element RNA in presence of competitor RNA; assay type: nucleic-acid assay
# [5] = molecular target: Rev responsive element (RRE) RNA; experiment: Inhibition of Rev binding to Rev response element RNA in absence of competitor RNA; assay type: nucleic-acid assay
# [6] = system: Rev responsive element (RRE) RNA; experiment: Ratio of inhibition of Rev binding to Rev response element RNA in presence to absence of competitor RNA; assay type: nucleic-acid assay
SMILES,Kd [1],Ratio [2],Kd [3],further results
NC[C@@H]1O[C@H](O[C@H]2[C@@H](O)[C@H](O[C@@H]3[C@@H](O)[C@H](N)C[C@H](N)[C@H]3O[C@H]3O[C@H](CN)[C@@H](O)[C@H](O)[C@H]3N)O[C@@H]2CSCCCCCCSCC(=O)NCCN(CC(=O)NCCN(CC(N)=O)C(=O)Cn2ccc(N)nc2=O)C(=O)Cn2cnc3c(O)nc(N)nc32)[C@H](N)[C@@H](O)[C@@H]1O,240 nM,,,
CC(=O)N(CCNC(=O)CSCCCCCCSC[C@H]1O[C@@H](O[C@@H]2[C@@H](O)[C@H](N)C[C@H](N)[C@H]2O[C@H]2O[C@H](CN)[C@@H](O)[C@H](O)[C@H]2N)[C@H](O)[C@@H]1O[C@H]1O[C@@H](CN)[C@@H](O)[C@H](O)[C@H]1N)CC(=O)NCCN(CC(N)=O)C(=O)Cn1cc(C)c(=O)[nH]c1=O,270 nM,,,
CC(=O)N(CCNC(=O)CSCCCCCCSC[C@H]1O[C@@H](O[C@@H]2[C@@H](O)[C@H](N)C[C@H](N)[C@H]2O[C@H]2O[C@H](CN)[C@@H](O)[C@H](O)[C@H]2N)[C@H](O)[C@@H]1O[C@H]1O[C@@H](CN)[C@@H](O)[C@H](O)[C@H]1N)CC(=O)NCCN(CC(N)=O)C(=O)Cn1cnc2c(O)nc(N)nc21,130 nM,,,
NC[C@@H]1O[C@H](O[C@H]2[C@@H](O)[C@H](O[C@@H]3[C@@H](O)[C@H](N)C[C@H](N)[C@H]3O[C@H]3O[C@H](CN)[C@@H](O)[C@H](O)[C@H]3N)O[C@@H]2CO)[C@H](N)[C@@H](O)[C@@H]1O [FRAMYCETIN],180 nM,,,
NC[C@@H]1O[C@H](O[C@H]2[C@@H](O)[C@H](O[C@@H]3[C@@H](O)[C@H](N)C[C@H](N)[C@H]3O[C@H]3O[C@H](CN)[C@@H](O)[C@H](O)[C@H]3N)O[C@@H]2CSCCCCCCSCC(=O)NCCN(CC(=O)NCCN(CC(N)=O)C(=O)Cn2cnc3c(O)nc(N)nc32)C(=O)Cn2ccc(N)nc2=O)[C@H](N)[C@@H](O)[C@@H]1O,170 nM,,,
Cc1cn(CC(=O)N(CCNC(=O)CSCCCCCCSC[C@H]2O[C@@H](O[C@@H]3[C@@H](O)[C@H](N)C[C@H](N)[C@H]3O[C@H]3O[C@H](CN)[C@@H](O)[C@H](O)[C@H]3N)[C@H](O)[C@@H]2O[C@H]2O[C@@H](CN)[C@@H](O)[C@H](O)[C@H]2N)CC(=O)NCCN(CC(N)=O)C(=O)Cn2ccc(N)nc2=O)c(=O)[nH]c1=O,360 nM,,,
NC[C@@H]1O[C@H](O[C@H]2[C@@H](O)[C@H](O[C@@H]3[C@@H](O)[C@H](N)C[C@H](N)[C@H]3O[C@H]3O[C@H](CN)[C@@H](O)[C@H](O)[C@H]3N)O[C@@H]2CSCCCCCCSCC(=O)NCCN(CC(=O)NCCN(CC(N)=O)C(=O)Cn2cnc3c(N)ncnc32)C(=O)Cn2cnc3c(O)nc(N)nc32)[C@H](N)[C@@H](O)[C@@H]1O,200 nM,,,
CC(=O)N(CCNC(=O)CSCCCCCCSC[C@H]1O[C@@H](O[C@@H]2[C@@H](O)[C@H](N)C[C@H](N)[C@H]2O[C@H]2O[C@H](CN)[C@@H](O)[C@H](O)[C@H]2N)[C@H](O)[C@@H]1O[C@H]1O[C@@H](CN)[C@@H](O)[C@H](O)[C@H]1N)CC(=O)NCCN(CC(N)=O)C(=O)Cn1ccc(N)nc1=O,320 nM,,,
Cc1cn(CC(=O)N(CCNC(=O)CN(CCNC(=O)CSCCCCCCSC[C@H]2O[C@@H](O[C@@H]3[C@@H](O)[C@H](N)C[C@H](N)[C@H]3O[C@H]3O[C@H](CN)[C@@H](O)[C@H](O)[C@H]3N)[C@H](O)[C@@H]2O[C@H]2O[C@@H](CN)[C@@H](O)[C@H](O)[C@H]2N)C(=O)Cn2cc(C)c(=O)[nH]c2=O)CC(N)=O)c(=O)[nH]c1=O,130 nM,,,
NC[C@@H]1O[C@H](O[C@H]2[C@@H](O)[C@H](O[C@@H]3[C@@H](O)[C@H](N)C[C@H](N)[C@H]3O[C@H]3O[C@H](CN)[C@@H](O)[C@H](O)[C@H]3N)O[C@@H]2CSCCCCCCSCC(=O)NCCN(CC(=O)NCCN(CC(N)=O)C(=O)Cn2ccc(N)nc2=O)C(=O)Cn2ccc(N)nc2=O)[C@H](N)[C@@H](O)[C@@H]1O,430 nM,,,
Cc1cn(CC(=O)N(CCNC(=O)CN(CCNC(=O)CSCCCCCCSC[C@H]2O[C@@H](O[C@@H]3[C@@H](O)[C@H](N)C[C@H](N)[C@H]3O[C@H]3O[C@H](CN)[C@@H](O)[C@H](O)[C@H]3N)[C@H](O)[C@@H]2O[C@H]2O[C@@H](CN)[C@@H](O)[C@H](O)[C@H]2N)C(=O)Cn2cnc3c(N)ncnc32)CC(N)=O)c(=O)[nH]c1=O,250 nM,,,
NC[C@@H]1O[C@H](O[C@H]2[C@@H](O)[C@H](O[C@@H]3[C@@H](O)[C@H](N)C[C@H](N)[C@H]3O[C@H]3O[C@H](CN)[C@@H](O)[C@H](O)[C@H]3N)O[C@@H]2CSCCNc2c3ccccc3nc3ccccc23)[C@H](N)[C@@H](O)[C@@H]1O,,,,IC50 [4]: 9800 nM; IC50 [5]: 500 nM

# More lines, main results first:
Kd [1],Ratio [2],Kd [3],SMILES,further results
93 nM,2.4,220 nM,Cc1cn(CC(=O)N(CCNC(=O)CN(CCNC(=O)CSCCCCCCSC[C@H]2O[C@@H](O[C@@H]3[C@@H](O)[C@H](N)C[C@H](N)[C@H]3O[C@H]3O[C@H](CN)[C@@H](O)[C@H](O)[C@H]3N)[C@H](O)[C@@H]2O[C@H]2O[C@@H](CN)[C@@H](O)[C@H](O)[C@H]2N)C(=O)Cn2cnc3c(O)nc(N)nc32)CC(N)=O)c(=O)[nH]c1=O,
110 nM,,,Cc1cn(CC(=O)N(CCNC(=O)CN(CCNC(=O)CSCCCCCCSC[C@H]2O[C@@H](O[C@@H]3[C@@H](O)[C@H](N)C[C@H](N)[C@H]3O[C@H]3O[C@H](CN)[C@@H](O)[C@H](O)[C@H]3N)[C@H](O)[C@@H]2O[C@H]2O[C@@H](CN)[C@@H](O)[C@H](O)[C@H]2N)C(=O)Cn2ccc(N)nc2=O)CC(N)=O)c(=O)[nH]c1=O,
58 nM,7.1,410 nM,NC[C@@H]1O[C@H](O[C@H]2[C@@H](O)[C@H](O[C@@H]3[C@@H](O)[C@H](N)C[C@H](N)[C@H]3O[C@H]3O[C@H](CN)[C@@H](O)[C@H](O)[C@H]3N)O[C@@H]2CSCCCCCCSCC(=O)NCCN(CC(=O)NCCN(CC(N)=O)C(=O)Cn2cnc3c(N)ncnc32)C(=O)Cn2cnc3c(N)ncnc32)[C@H](N)[C@@H](O)[C@@H]1O,IC50 [4]: 68000 nM; IC50 [5]: 55000 nM; Ratio [6]: 1.2
130 nM,,,NC[C@@H]1O[C@H](O[C@H]2[C@@H](O)[C@H](O[C@@H]3[C@@H](O)[C@H](N)C[C@H](N)[C@H]3O[C@H]3O[C@H](CN)[C@@H](O)[C@H](O)[C@H]3N)O[C@@H]2CSCCCCCCSCC(=O)NCCN(CC(=O)NCCN(CC(N)=O)C(=O)Cn2cnc3c(N)ncnc32)C(=O)Cn2ccc(N)nc2=O)[C@H](N)[C@@H](O)[C@@H]1O,
51 nM,1.5,76 nM,NC[C@@H]1O[C@H](O[C@H]2[C@@H](O)[C@H](O[C@@H]3[C@@H](O)[C@H](N)C[C@H](N)[C@H]3O[C@H]3O[C@H](CN)[C@@H](O)[C@H](O)[C@H]3N)O[C@@H]2CSCCCCCCSCC(=O)NCCN(CC(=O)NCCN(CC(N)=O)C(=O)Cn2ccc(N)nc2=O)C(=O)Cn2cnc3c(N)ncnc32)[C@H](N)[C@@H](O)[C@@H]1O,
71 nM,3.2,230 nM,Cc1cn(CC(=O)N(CCNC(=O)CSCCCCCCSC[C@H]2O[C@@H](O[C@@H]3[C@@H](O)[C@H](N)C[C@H](N)[C@H]3O[C@H]3O[C@H](CN)[C@@H](O)[C@H](O)[C@H]3N)[C@H](O)[C@@H]2O[C@H]2O[C@@H](CN)[C@@H](O)[C@H](O)[C@H]2N)CC(=O)NCCN(CC(N)=O)C(=O)Cn2cnc3c(N)ncnc32)c(=O)[nH]c1=O,
38 nM,4.5,170 nM,NC[C@@H]1O[C@H](O[C@H]2[C@@H](O)[C@H](O[C@@H]3[C@@H](O)[C@H](N)C[C@H](N)[C@H]3O[C@H]3O[C@H](CN)[C@@H](O)[C@H](O)[C@H]3N)O[C@@H]2CSCCCCCCSCC(=O)NCCN(CC(=O)NCCN(CC(N)=O)C(=O)Cn2cnc3c(O)nc(N)nc32)C(=O)Cn2cnc3c(N)ncnc32)[C@H](N)[C@@H](O)[C@@H]1O,
30 nM,7,210 nM,NC[C@@H]1O[C@H](O[C@H]2[C@@H](O)[C@H](O[C@@H]3[C@@H](O)[C@H](N)C[C@H](N)[C@H]3O[C@H]3O[C@H](CN)[C@@H](O)[C@H](O)[C@H]3N)O[C@@H]2CSCCCCCCSCC(=O)NCCN(CC(=O)NCCN(CC(N)=O)C(=O)Cn2cnc3c(O)nc(N)nc32)C(=O)Cn2cnc3c(O)nc(N)nc32)[C@H](N)[C@@H](O)[C@@H]1O,IC50 [4]: 45000 nM; IC50 [5]: 32000 nM; Ratio [6]: 1.4

# Source: ChEMBL document CHEMBL1149371, “A strategy for the design of selective RNA binding agents. Preparation and RRE RNA binding affinities of a neomycin-peptide nucleic acid heteroconjugate library” (Bioorg Med Chem Lett, 2006)
